# Assay results: ChEMBL document CHEMBL1135281, “Solid-phase synthesis and pharmacological evaluation of analogues of PhTX-12-A potent and selective nicotinic acetylcholine receptor antagonist” (Bioorg Med Chem Lett, 2002)
# Key:
# [1] = biological target: T1, Acetylcholine receptor subunit delta (Homo sapiens, UniProt Q07001); experiment: Compound was evaluated for inhibitory activity against human embryonic muscle type Nicotinic acetylcholine receptor specifically delta-subunit expressed in TE-671 cell (at holding potential -50 mV); type: cell-based
# [2] = biological target: T1, Acetylcholine receptor subunit delta; experiment: Compound was evaluated for inhibitory activity against human embryonic muscle type Nicotinic acetylcholine receptor specifically delta-subunit expressed in TE-671 cell (at holding potential -100 mV); type: cell-based
# T1 sequence (Q07001 whole entry): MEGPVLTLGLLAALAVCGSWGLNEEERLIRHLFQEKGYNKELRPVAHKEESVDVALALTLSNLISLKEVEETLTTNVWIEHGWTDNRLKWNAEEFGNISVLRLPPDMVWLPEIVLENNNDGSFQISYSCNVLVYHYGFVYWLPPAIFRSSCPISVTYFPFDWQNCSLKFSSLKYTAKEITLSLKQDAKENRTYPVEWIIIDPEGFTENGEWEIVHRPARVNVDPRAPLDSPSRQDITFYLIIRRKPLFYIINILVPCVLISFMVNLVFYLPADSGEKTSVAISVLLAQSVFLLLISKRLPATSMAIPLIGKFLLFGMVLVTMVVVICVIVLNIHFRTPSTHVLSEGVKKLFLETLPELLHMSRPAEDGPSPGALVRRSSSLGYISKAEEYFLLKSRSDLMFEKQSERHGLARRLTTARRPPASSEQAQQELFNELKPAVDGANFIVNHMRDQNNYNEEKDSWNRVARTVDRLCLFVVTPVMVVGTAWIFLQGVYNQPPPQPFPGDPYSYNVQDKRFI
SMILES,IC50 [1],IC50 [2]
CCCC(=O)N[C@@H](Cc1ccc(O)cc1)C(=O)NCCCCCCCN,10.5 µM,5.44 µM
CCCC(=O)N[C@@H](Cc1ccc(O)cc1)C(=O)NCCCCCCCCCN,13.3 µM,15.1 µM
CCCC(=O)N[C@@H](Cc1ccc(O)cc1)C(=O)NCCCCCCCCN,9.76 µM,5.03 µM
CCCC(=O)N[C@@H](Cc1ccc(O)cc1)C(=O)NCCCCCCCCCCN,8.66 µM,~10 µM
CCCC(=O)N[C@@H](Cc1ccc(O)cc1)C(=O)NCCCCCCCCCCCCN,1.53 µM,0.93 µM
CCCC(=O)N[C@@H](Cc1ccc(O)cc1)C(=O)NCCCNCCCCNCCCN [PHILANTHOTOXIN 343],–,75 µM
CCCC(=O)N[C@@H](Cc1ccc(O)cc1)C(=O)NCCCCCCCCCCCN,0.58 µM,0.46 µM
